Experimental data taken from patent publication US20080200567A1, “IN VIVO SCREENING MODELS FOR TREATMENT OF ALZHEIMER'S DISEASE AND OTHER QPCT-RELATED DISORDERS” (PROBIODRUG AG, priority 2007, published 2008).

Columns and labels:
[1] = system: mammalian QC; settings: Busby et al. 1987 and later reports; cited from earlier work
[2] = molecular target: T1, human QC (Homo sapiens, UniProt Q16769); test: QC inhibition by chelators (inhibitor assay); type: biochemical; settings: human QC and other animal QCs
T1 construct: The cDNA of the mature QC starting with codon 38 was fused in frame with the plasmid encoded 6× histidine tag; 6x histidine; made in house; host or cells: Pichia pastoris X33 (pPICZαB) or E. coli M15 (pQE-31)
Protocol: QC activity was evaluated fluorometrically using H-Gln-βNA. The samples consisted of 0.2 mM fluorogenic substrate, 0.25 U pyroglutamyl aminopeptidase (Unizyme, Horsholm, Denmark) in 0.2 M Tris/HCl, pH 8.0 containing 20 mM EDTA and an appropriately diluted aliquot of QC in a final volume of 250 μl. Excitation/emission wavelengths were 320/410 nm. The assay reactions were initiated by addition of glutaminyl cyclase. QC activity was determined from a standard curve of β-naphthylamine under assay conditions.
Reactions were carried out at 30° C. utilizing the NOVOStar reader for microplates (BMG labtechnologies). The samples consisted of varying concentrations of the fluorogenic substrate, 0.1 U pyroglutamyl aminopeptidase (Qiagen) in 0.05 M Tris/HCl, pH 8.0 containing 5 mM EDTA and an appropriately diluted aliquot of QC in a final volume of 250 μl. Excitation/emission wavelengths were 380/460 nm. The assay reactions were initiated by addition of glutaminyl cyclase. QC activity was determined from a standard curve of 7-amino-4-methylcoumarin under assay conditions. The kinetic data were evaluated using GraFit software.
This novel assay was used to determine the kinetic parameters for most of the QC substrates.
The initial velocities were evaluated and the enzymatic activity was determined from a standard curve of ammonia under assay conditions. All samples were measured at 30° C., using either the […]uor Plus or the Sunrise (both from TECAN) reader for microplates. Kinetic data was evaluated using GraFit software.
For inhibitor testing, the sample composition was the same as described above, except for the putative inhibitory compound added. For a rapid test of QC-inhibition, samples contained 4 mM of the respective inhibitor and a substrate concentration at 1 KM. For detailed investigations of the inhibition and determination of Ki-values, influence of the inhibitor on the auxiliary enzymes was investigated first. […] The inhibitory constant was evaluated by fitting the set of progress curves to the general equation for competitive inhibition using GraFit software.

[3] = system: QC; test: pH-dependence of the QC catalyzed conversion of Glu-βNA; type: biochemical
[4] = Nonenzymatic turnover (cyclization) of model substrates; type: physicochemical; settings: without enzyme
[5] = cited from earlier work

T1 sequence (Q16769 29-361): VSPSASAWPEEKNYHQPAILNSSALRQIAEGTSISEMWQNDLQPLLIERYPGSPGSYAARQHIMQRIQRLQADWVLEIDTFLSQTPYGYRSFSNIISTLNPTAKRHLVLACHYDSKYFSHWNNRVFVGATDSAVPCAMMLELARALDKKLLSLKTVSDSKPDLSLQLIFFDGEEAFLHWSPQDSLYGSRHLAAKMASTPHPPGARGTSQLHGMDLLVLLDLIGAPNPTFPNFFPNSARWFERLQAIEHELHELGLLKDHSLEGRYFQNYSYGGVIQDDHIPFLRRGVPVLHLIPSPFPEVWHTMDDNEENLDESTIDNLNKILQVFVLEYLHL

Row | Compound | Inhibition of a mammalian QC [1] | inhibition characteristics of QC by chelators [2] | other results
1 | reduced 6-methylpterin | detected |  | 
2 | O=C(O)c1cccc(C(=O)O)n1 [dipicolinic acid] |  | inhibition | 
3 | N[C@@H](CCC(=O)O)C(=O)Nc1ccc2ccccc2c1 [Glu-βNA] |  |  | kinetically determined pKa-value [3]: 7.55+/−0.02; pH-optimum of catalysis [3]: ~6.0; nonenzymatic turnover [4]: negligible
4 | Oc1cccc2cccnc12 [8-hydroxy-quinoline] |  | inhibition | 
5 | O=C(O)CN(CCN(CC(=O)O)CC(=O)O)CC(=O)O [EDTA] | did not inhibit |  | 
6 | c1cnc2c(c1)ccc1cccnc12 [1,10-phenanthroline] | detected | inhibition | 
7 | NC(=O)CC[C@H](N)C(=O)Nc1ccc2ccccc2c1 [Gln-NA, Glutaminyl-beta-naphthylamine] |  |  | nonenzymatic turnover [4]: negligible
8 | N[C@@H](CCC(=O)O)C(=O)O [Glutamate] |  |  | pKa-value for the α-amino moiety [5]: ~7.5; pKa-value for the γ-carboxylic moiety [5]: about 4.2
